Experimental data reported in patent US10112935B2, “Indazolyl thiadiazolamines and related compounds for inhibition of Rho-associated protein kinase and the treatment of disease” (Lycera Corporation, priority 2015, dated 2018).

Key:
[1] = target: GST-tagged human ROCK2 catalytic domain 1-553 (Homo sapiens (Human), UniProt O75116); experiment: Inhibition of Rho-associated protein kinase isoform 2 (LANCE Ultra ULight-CREBtide FRET kinase assay); format: biochemical; settings: for IC50: 30 μM was the highest concentration analyzed; for Selectivity for ROCK2 over ROCK1 (IC50 ROCK1 / IC50 ROCK2): selectivity ROCK2 vs ROCK1
Chain of GST-tagged human ROCK2 catalytic domain 1-553 (O75116 1-553): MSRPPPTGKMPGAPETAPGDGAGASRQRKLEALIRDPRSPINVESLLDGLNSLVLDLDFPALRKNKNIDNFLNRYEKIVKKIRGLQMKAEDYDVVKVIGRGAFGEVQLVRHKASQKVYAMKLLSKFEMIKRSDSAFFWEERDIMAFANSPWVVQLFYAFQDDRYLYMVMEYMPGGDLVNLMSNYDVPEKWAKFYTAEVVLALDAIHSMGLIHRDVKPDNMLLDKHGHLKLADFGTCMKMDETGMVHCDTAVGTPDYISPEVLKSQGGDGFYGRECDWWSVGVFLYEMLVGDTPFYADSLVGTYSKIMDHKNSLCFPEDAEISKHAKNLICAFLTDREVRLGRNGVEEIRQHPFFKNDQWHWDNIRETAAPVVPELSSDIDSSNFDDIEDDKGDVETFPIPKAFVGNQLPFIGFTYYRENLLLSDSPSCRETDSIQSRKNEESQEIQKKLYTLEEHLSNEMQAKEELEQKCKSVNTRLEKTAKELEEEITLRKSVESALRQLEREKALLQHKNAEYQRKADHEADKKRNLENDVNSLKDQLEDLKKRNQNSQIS
Description: (§1) Exemplary compounds were tested for ability to inhibit Rho-associated protein kinase isoform 1 (ROCK1) and Rho-associated protein kinase isoform 2 (ROCK2). Assay procedures and results are described below.
(§2) Protein constructs were purified from a baculovirus expression system. The peptide substrate was fluorescent LANCE® Ultra ULight-CREBtide: […] (PerkinElmer, # TRF0107-D). […] After a 90 minute incubation at room temperature on a shaker table, the kinase reaction was stopped by addition of 10 mM EDTA, and phosphorylation of the substrate was detected by adding 1 nM LANCE® Ultra Europium-anti-phospho-CREB (ser133) antibody (PerkinElmer, # TRF0200-D) and incubating for 60 minutes on a shaker at room temperature. The flurorescence resonance energy transfer (FRET) signals were read and analyzed on an Envision™ 2103 Multilabel Reader (Perkin Elmer).

[2] = target: GST-tagged human ROCK1 catalytic domain 1-477 (Homo sapiens (Human), UniProt Q13464); experiment: Inhibition of Rho-associated protein kinase isoform 1 (LANCE Ultra ULight-CREBtide FRET kinase assay); format: biochemical; settings: 30 μM was the highest concentration analyzed
Chain of GST-tagged human ROCK1 catalytic domain 1-477 (Q13464 1-477): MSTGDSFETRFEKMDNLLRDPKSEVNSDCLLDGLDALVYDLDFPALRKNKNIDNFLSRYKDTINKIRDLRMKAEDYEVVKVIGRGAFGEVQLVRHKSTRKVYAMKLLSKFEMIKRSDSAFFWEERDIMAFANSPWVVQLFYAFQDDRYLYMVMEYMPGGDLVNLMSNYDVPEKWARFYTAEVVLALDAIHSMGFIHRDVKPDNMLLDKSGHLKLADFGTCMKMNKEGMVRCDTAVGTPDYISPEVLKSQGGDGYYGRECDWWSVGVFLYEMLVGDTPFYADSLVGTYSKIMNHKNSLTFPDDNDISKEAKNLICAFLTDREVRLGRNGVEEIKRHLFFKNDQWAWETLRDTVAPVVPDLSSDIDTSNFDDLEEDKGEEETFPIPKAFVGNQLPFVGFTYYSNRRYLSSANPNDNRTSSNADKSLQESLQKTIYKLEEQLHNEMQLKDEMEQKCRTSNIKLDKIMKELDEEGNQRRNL
Description: as §1, §2

| Structure (SMILES) | IC50 [1] | Selectivity for ROCK2 over ROCK1 (IC50 ROCK1 / IC50 ROCK2) [1] | IC50 [2] |
| --- | --- | --- | --- |
| CN(C)CC(=O)Nc1cncc(-c2nnc(Nc3ccc4[nH]ncc4c3)s2)c1 [Example A-3] | < 1 µM | <5 | 1 to 15 µM |
| CC(C(=O)Nc1cc(-c2nnc(Nc3ccc4[nH]ncc4c3Cl)s2)ccn1)c1ccc(F)cc1 (centres unmarked) [Example 34, N-(4-(5-((4-Chloro-1H-indazol-5-yl)amino)-1,3,4-thiadiazol-2-yl)pyridin-2-yl)-2-(4-fluorophenyl)propanamide] | < 1 µM | >50 | < 1 µM |
| CC(C)(CO)NC(=O)c1cccc(-c2nnc(Nc3ccc4[nH]ncc4c3Cl)s2)c1 [Example 35AR] | < 1 µM | >5 | 1 to 15 µM |
| CC(=O)Nc1cc(-c2ncco2)cc(-c2nnc(Nc3ccc4[nH]ncc4c3Cl)s2)c1.O=C(O)C(F)(F)F [Example 46M] | < 1 µM | >100 | > 30 µM |
| Cn1nccc1C(=O)Nc1cccc(-c2nnc(Nc3ccc4[nH]ncc4c3)s2)c1 [Example A-43] | < 1 µM | >100 | > 30 µM |
| Fc1cc(-c2ncco2)cc(-c2nnc(Nc3ccc4[nH]ncc4c3Cl)s2)c1 [Example 46J] | < 1 µM | >100 | > 30 µM |
| CC(C)C[C@H](N)C(=O)Nc1cccc(-c2nnc(Nc3ccc4[nH]ncc4c3Cl)s2)c1 [Example 35BA] | < 1 µM | >5 | < 1 µM |
| Cc1ccc(CC(=O)Nc2cccc(-c3nnc(Nc4ccc5[nH]ncc5c4Cl)s3)c2)nc1 [Example 35AO] | < 1 µM | >100 | > 30 µM |
| Cn1cc(C(=O)Nc2cccc(-c3nnc(Nc4ccc5[nH]nc(F)c5c4)s3)c2)cn1 [Example 35BW] | > 30 µM |  | > 30 µM |
| O=C(Nc1cccc(-c2nnc(Nc3ccc4[nH]ncc4c3)s2)c1)c1cnn(CCO)c1 [Example A-20] | < 1 µM | >100 | > 30 µM |
| O=C(Nc1cccc(-c2nnc(Nc3ccc4[nH]ncc4c3Cl)s2)c1)N1CCNCC1 [Example 35T] | < 1 µM | >5 | < 1 µM |
| CC(C(=O)Nc1cccc(-c2nnc(Nc3ccc4[nH]ncc4c3Cl)s2)c1)c1ccc(F)cc1 (centres unmarked) [Example 35E] | < 1 µM | >50 | 1 to 15 µM |
| Cn1cc(C(=O)Nc2cccc(-c3nnc(Nc4ccc5[nH]ncc5c4Cl)s3)c2)cn1 [Example A-11] | < 1 µM | >100 | > 30 µM |
| CC(=O)Nc1cc(F)c(F)c(-c2nnc(Nc3ccc4[nH]ncc4c3)s2)c1 [Example 35CB] | < 1 µM | >100 | > 30 µM |
| NCCn1cc(C(=O)Nc2cc(-c3nnc(Nc4ccc5[nH]ncc5c4)s3)ccn2)cn1.O=C(O)C(F)(F)F [Example 35BV] | < 1 µM | >50 | < 1 µM |
| O=C(O)c1cccc(-c2nnc(Nc3ccc4[nH]ncc4c3)s2)c1 [Example 35CL] | 1 to 15 µM |  | 15 to 30 µM |
| Cc1coc(-c2cccc(-c3nnc(Nc4ccc5[nH]ncc5c4Cl)s3)c2)n1 [Example 46C] | < 1 µM | >5 | < 1 µM |

| Structure (SMILES) | IC50 [1] | Selectivity for ROCK2 over ROCK1 (IC50 ROCK1 / IC50 ROCK2) [1] | IC50 [2] |
| --- | --- | --- | --- |
| c1csc(-c2cncc(-c3nnc(Nc4ccc5[nH]ncc5c4)s3)c2)c1 [Example 39D] | < 1 µM | >5 | 1 to 15 µM |
| O=C(Nc1cccc(-c2nnc(Nc3ccc4[nH]ncc4c3)s2)c1)C(O)CO (centres unmarked) [Example 35CI] | < 1 µM | <5 | < 1 µM |
| CN1C(=O)Cc2c(-c3nnc(Nc4ccc5[nH]ncc5c4Cl)s3)cccc21.O=C(O)C(F)(F)F [Example 43, 4-(5-((4-Chloro-1H-indazol-5-yl)amino)-1,3,4-thiadiazol-2-yl)-1-methylindolin-2-one 2,2,2-trifluoroacetic Acid Solvate] | < 1 µM | >5 | 1 to 15 µM |
| Cn1cc(C(=O)Nc2cncc(-c3nnc(Nc4ccc5[nH]ncc5c4)s3)c2)cn1.O=C(O)C(F)(F)F [Example 35CA] | < 1 µM | <5 | < 1 µM |
| Clc1c(Nc2nnc(-c3cccc(-c4nnn[nH]4)c3)s2)ccc2[nH]ncc12 [Example 41D] | < 1 µM | >50 | < 1 µM |
| Cn1cc(CC(=O)Nc2cccc(-c3nnc(Nc4ccc5[nH]ncc5c4Cl)s3)c2)cn1 [Example 35BH] | < 1 µM | >100 | < 1 µM |
| C=Cc1c(Nc2nnc(-c3cccc(NC(C)=O)c3)s2)ccc2[nH]ncc12.O=C(O)C(F)(F)F [Example 35K] | < 1 µM | >5 | 1 to 15 µM |
| CC(C)NCC(=O)Nc1cncc(-c2nnc(Nc3ccc4[nH]ncc4c3)s2)c1 [Example A-2] | < 1 µM | >5 | 1 to 15 µM |
| O=C(Cc1ccc(F)cc1)Nc1cc(-c2nnc(Nc3ccc4[nH]ncc4c3Cl)s2)ccn1 [Example 35G] | < 1 µM | >5 | < 1 µM |
| c1cc(-c2cn[nH]c2)cc(-c2nnc(Nc3ccc4[nH]ncc4c3)s2)c1 [Example A-17] | < 1 µM | >100 | > 30 µM |
| O=C(Nc1cccc(-c2nnc(Nc3ccc4[nH]ncc4c3Cl)s2)c1)c1cnccn1 [Example 35BR] | < 1 µM | >100 | > 30 µM |
| Nc1cccc(-c2nnc(Nc3ccc4[nH]ncc4c3)s2)c1 [Example A-47] | 1 to 15 µM | >5 | > 30 µM |
| CCS(=O)(=O)Nc1cccc(-c2nnc(Nc3ccc4[nH]ncc4c3)s2)c1 [Example A-8] | 1 to 15 µM | >5 | > 30 µM |
| O=C(Nc1cccc(-c2nnc(Nc3ccc4[nH]ncc4c3Cl)s2)c1)c1ccc(F)cc1 [Example 35AW] | < 1 µM | >5 | < 1 µM |
| O=C(Cc1ncc[nH]1)Nc1cccc(-c2nnc(Nc3ccc4[nH]ncc4c3Cl)s2)c1 [Example 35BD] | < 1 µM | >100 | > 30 µM |
| C[C@H](N)C(=O)Nc1cccc(-c2nnc(Nc3ccc4[nH]ncc4c3Cl)s2)c1 [Example 35AA] | < 1 µM | >5 | 1 to 15 µM |

Next, values leading:

| IC50 [1] | Selectivity for ROCK2 over ROCK1 (IC50 ROCK1 / IC50 ROCK2) [1] | IC50 [2] | Structure (SMILES) |
| --- | --- | --- | --- |
| < 1 µM | >5 | < 1 µM | COc1ccc(NC(C)=O)cc1-c1nnc(Nc2ccc3[nH]ncc3c2Cl)s1 [Example 48J] |
| < 1 µM | >100 | > 30 µM | O=C1Cc2c(cccc2-c2nnc(Nc3ccc4[nH]ncc4c3Cl)s2)N1 [Example 56D] |
| < 1 µM | >5 | 1 to 15 µM | CC1(C)CN=C(c2cccc(-c3nnc(Nc4ccc5[nH]ncc5c4Cl)s3)c2)O1 [Example 75Q] |
| > 30 µM |  | > 30 µM | Clc1c(Nc2nnc(-c3cccc4c3OCCO4)s2)ccc2[nH]ncc12 [Example 75E] |
| < 1 µM | >100 | > 30 µM | Cn1cccc(-c2nnc(Nc3ccc4[nH]ncc4c3Cl)s2)c1=O.O=C(O)C(F)(F)F [Example 56H] |
| < 1 µM | >5 | < 1 µM | Cn1cc(C(=O)Nc2cc(C(=O)O)cc(-c3nnc(Nc4ccc5[nH]ncc5c4Cl)s3)c2)cn1 [Example 48AC] |
| < 1 µM | >100 | > 30 µM | Cn1c(C2CC2)nc2c(-c3nnc(Nc4ccc5[nH]ncc5c4)s3)cccc21 [Example 56G] |
| < 1 µM | <5 | < 1 µM | Clc1c(Nc2nnc(-c3cccn4cc(C5CCCN5)nc34)s2)ccc2[nH]ncc12 (centres unmarked) [Example 50G] |
| < 1 µM | >5 | 1 to 15 µM | CCc1cn2cccc(-c3nnc(Nc4ccc5[nH]nc(C)c5c4)s3)c2n1 [Example 50A] |
| > 30 µM |  | > 30 µM | CC(C)(C)c1cn2cccc(-c3nnc(Nc4ccc5[nH]ncc5c4Cl)s3)c2n1 [Example 75T] |
| < 1 µM | >5 | < 1 µM | CC(=O)Nc1cc(CC(=O)O)cc(-c2nnc(Nc3ccc4[nH]ncc4c3Cl)s2)c1 [Example 75S] |
| < 1 µM | >100 | 1 to 15 µM | FC(F)(F)c1nc2c(-c3nnc(Nc4ccc5[nH]ncc5c4Cl)s3)cc(Br)cn2n1 [Example 50B] |
| < 1 µM | >5 | < 1 µM | Cn1cc(C(=O)Nc2cc(CC(=O)O)cc(-c3nnc(Nc4ccc5[nH]ncc5c4Cl)s3)c2)cn1 [Example 48R] |
